Data on one molecule can be found in patent US7399769B2, “Aryl-isoxazol-4-yl-imidazo[1,5-a]pyridine derivatives” (Hoffmann-La Roche Inc., priority 2005, dated 2008).

Structures are written as SMILES.

The target in this test is T1, human GABA A receptor α5β3γ2 (hα5) (Homo sapiens, UniProt P18507+P31644).
T1 construct: expressed in transfected cells; host or cells: HEK293 (transient transfection); membranes prepared from cell pellets
Kind of test: [3H]flumazenil competition binding, human GABA A α5β3γ2 receptors in HEK293 cells. The settings on record: displacement of [3H]flumazenil 0.5 nM; HEK293 cells transiently transfected with human receptors; mean of two determinations. Here is the method: Membrane Preparation and Binding Assay
The affinity of compounds at GABA A receptor subtypes was measured by competition for [3H]flumazenil (85 Ci/mmol; Roche) binding to HEK293 cells expressing rat (stably transfected) or human (transiently transfected) receptors of composition α1β3γ2, α2β3γ2, α3β3γ2 and α5β3γ2.
Cell pellets were suspended in Krebs-tris buffer (4.8 mM KCl, 1.2 mM CaCl2, 1.2 mM MgCl2, 120 mM NaCl, 15 mM Tris; pH 7.5; binding assay buffer), homogenized by polytron for ca. 20 sec on ice and centrifuged for 60 min at 4° C. (50000 g; Sorvall, rotor: SM24=20000 rpm). The cell pellets were resuspended in Krebs-tris buffer and homogenized by polytron for ca. 15 sec on ice. Protein was measured (Bradford method, Bio-Rad) and aliquots of 1 mL were prepared and stored at −80° C.
Radioligand binding assays were carried out in a volume of […] (96-well plates) which contained […] of cell membranes, [3H]flumazenil at a concentration of 1 nM for α1, α2, α3 subunits and 0.5 nM for α5 subunits and the test compound in the range of […]. Nonspecific binding was defined by 10^−5 M diazepam and typically represented less than 5% of the total binding. […] After drying, filter-retained radioactivity was detected by liquid scintillation counting. Ki values were calculated using Excel-Fit (Microsoft) and are the means of two determinations. […]
A general note: Loss of bound radioactivity is the signal in a displacement assay; it reports binding, not function.

The Ki is the equilibrium dissociation constant of an inhibitor or competing ligand from its target. Lower therefore signals tighter binding. The molecule `Cc1onc(-c2ccccc2)c1-c1ncc2ccccn12` [Example 1, 3-(5-Methyl-3-phenyl-isoxazol-4-yl)-imidazo[1,5-a]pyridine] returned a Ki of 77.9 nM. This counts as double-digit nanomolar.
